Drawing on patent US20260293897A1, “COMPOUND CONTAINING FIVE-MEMBERED HETEROCYCLE, PREPARATION METHOD THEREFOR, AND APPLICATION THEREOF” (QINGDAO KANGQIAO PESTICIDES AND CHEMICALS GROUP CO., LTD., priority 2022, published 2026), this text covers mortality for 14 compounds.

Like-named read-outs stand apart in the source and are kept apart here.

Assay type in all cases: in vivo
For test [1], the system named is Frankliniella occidentalis larvae. Briefly: Frankliniella occidentalis Larva Controlling Activity Test. The settings on record: for mortality at 3.25 ppm: read-out: mortality for Frankliniella occidentalis larvae. Here is the method: Frankliniella occidentalis Larva Controlling Activity Test:
The test compound is dissolved in acetone and diluted to the desired concentration. 0.5 mL of the prepared acetone medicinal liquid is added into a glass tube (the inner diameter is 1 cm, the length is 10 cm), and the glass tube is repeatedly rolled on a flat table until the acetone solution is completely volatilized. Soaking cabbage leaves in the liquid medicine with the corresponding concentration for 15 s, drying, placing in a glass tube, inoculating 10-20 heads of Frankliniella occidentalis larvae in the glass tube, repeating the treatment for three times, observing in a constant-temperature observation room after the treatment, investigating the number of live insects after 72 hours, and calculating the mortality.

For test [2], the system named is Sensitive Plutella xylostella. Briefly: Sensitive Plutella xylostella Controlling Activity Test. From the text: Sensitive Plutella xylostella Controlling Activity Test:
Test targets: Plutella xylostella, 3 rd instar larvae, a sensitive strain raised indoors.
The test method comprises the following steps: selecting fresh cabbage leaves cultivated in a greenhouse, making the cabbage leaves into round with the diameter of 3 cm by using a puncher, putting the circular blade into prepared liquid medicine to be soaked for 10 s according to the sequence from low dose to high dose of experimental design, naturally drying the cabbage leaves in the shade, putting the soaked cabbage leaves into a culture dish with filter paper and the diameter of 9 cm, inoculating regular healthy test insects, n=10, repeating the treatment for 3 times, and additionally setting blank control.

The subject of test [3] is Resistant Plutella xylostella. Briefly: Resistant Plutella xylostella Controlling Activity Test. To be noted: Plutella xylostella, in Raphanus sativus, 72 h. Here is the method:
Resistant Plutella xylostella Controlling Activity Test:
Leaf dipping method was used, the appropriate amount of radish leaves were dipped into the drug for 10 s, placed in a plastic petri dish padded with filter paper and dried naturally, each dish was connected with 10 heads of 2nd instar small cabbage moths, placed in the observation room at 24° C. and light (16/8 h). 72 h later observation was made, and the body of the insect was touched lightly with a brush and no reaction was regarded as a dead insect, which was repeated for three times, and a blank control was also set up without any additional agent.

For the next test, the system named is Tetranychus cinnabarinus. Briefly: Tetranychus cinnabarinus Controlling Activity Test. The settings on record: 72 h; for mortality at 1.6 ppm: read-out: mortality against Tetranychus cinnabarinus; for mortality at 1.56 ppm / mortality at 3.125 ppm / mortality at 6.25 ppm / mortality at 12.5 ppm: in Phaseolus vulgaris. The protocol:
Tetranychus cinnabarinus Controlling Activity Test:
The test compound was dissolved in acetone and diluted to the desired concentration with 0.1 wt % aqueous tween 80, the acetone content not exceeding 5 wt %.
One real leaf was removed from kidney bean seedlings grown to two real leaves, inoculating Tetranychus cinnabarinus, investigating the base number, performing whole plant spraying treatment by using a handheld sprayer, repeating the treatment for 3 times (the application amount of the preparation is about 0.5 g), observing in a constant-temperature observation room after the treatment, investigating the number of live mites after 72 hours, and calculating the mortality. The number of Tetranychus cinnabarinus inoculated in each time is 35-100.
Mortality%=(number of inoculated insects−number of live insects after drug administration)÷number of inoculated insects×100%

The test system of the next test is Spodoptera frugiperda. Briefly: Spodoptera frugiperda Indoor Toxicity Determination Test. To be noted: in Zea mays, read-out: mortality against Spodoptera frugiperda. From the text: Spodoptera frugiperda Indoor Toxicity Determination Test
Test targets: Spodoptera frugiperda, 3rd instar larvae, a sensitive strain raised indoors.
The test method comprises the following steps: firstly, selecting fresh corn leaves cultivated in a greenhouse, cutting the fresh corn leaves into 5 cm-long leaf segments, sequentially arranging the test design from low dose to high dose, soaking the fresh corn leaves in prepared liquid medicine for 10 s, naturally drying the fresh corn leaves in the shade, then placing the dried corn leaves in a culture dish with filter paper and the diameter of 9 cm, inoculating regular healthy test insects, n=10, repeating the treatment for 3 times, and additionally arranging blank control.

A further test deals with Phyllotreta striolata. Briefly: Phyllotreta striolata Controlling Activity Test. The settings on record: 72 h, read-out: mortality against Phyllotreta striolata. Here is the method:
Phyllotreta striolata Controlling Activity Test:
Preparing liquid medicine according to the experimental design concentration, selecting fresh cabbage leaves, soaking the cabbage leaves for 15 s, taking out, airing, placing in a glass tube, connecting 20-25 heads of the Flea beetles adults with each tube, repeating the treatment for 3 times, investigating the death condition of the Phyllotreta striolata after 72 hours, and calculating and correcting the death rate.

Setting [4] is: 3.25 ppm (3.125 mg/L), larvae, 72 hours.
The mark [5] stands for this setting: 1 ppm (1 mg/L), 3rd instar larvae, sensitive strain, read-out: mortality against Plutella xylostella.
[6] abbreviates: read-out: mortality against Plutella xylostella.

Consider `Cc1cc(C2=NO[C@@](c3cc(Cl)c(F)c(Cl)c3)(C(F)(F)F)C2)ccc1C(=O)N[C@H]1CCS(=O)(=O)C1` [Compound I-15], for which the mortality (as a rule, the percentage killed) at 3.25 ppm in test [1] (setting [4]) is more than 90%. For the same compound, the mortality at 1 ppm in test [2] (setting [5]) was more than 90%.
As for `CC(=O)N(C(=O)c1ccc(C2=NOC(c3cc(Cl)c(F)c(Cl)c3)(C(F)(F)F)C2)cc1C)C1CCS(=O)(=O)C1` (centres unmarked) [Compound I-9, N-acetyl-4-(5-(3,5-dichloro-4-fluorophenyl)-5-(trifluoromethyl)-4,5-dihydroisoxazol-3-yl)-N-(1,1-dioxotetrahydrothiophen-3-yl)-2-methylbenzamide], the mortality at 3.25 ppm in test [1] (72 h) is more than 90%. In test [3], this compound showed a mortality at 0.2 ppm of 43.3%, a mortality at 1 ppm of 100% and a mortality at 5 ppm of 100%. Further, in the test on Tetranychus cinnabarinus, the mortality at 1.6 ppm was more than 90%. For the same compound, the mortality at 1 ppm in test [2] (setting [6]) is more than 90%.
With `CCC(=O)N(C(=O)c1ccc(C2=NOC(c3cc(Cl)c(F)c(Cl)c3)(C(F)(F)F)C2)cc1C)C1CCS(=O)(=O)C1` (centres unmarked) [Compound I-10, N-propionyl-4-(5-(3,5-dichloro-4-fluorophenyl)-5-(trifluoromethyl)-4,5-dihydroisoxazol-3-yl)-N-(1,1-dioxotetrahydrothiophen-3-yl)-2-methylbenzamide], the mortality at 3.25 ppm in test [1] (72 h) was more than 90%. In test [1] (in Brassica oleracea, 72 h), this compound showed a mortality at 1.56 ppm of 92%, a mortality at 3.125 ppm of 100% and a mortality at 6.25 ppm of 100%. Moreover, in the test with Tetranychus cinnabarinus, the mortality at 1.6 ppm is more than 90%, the mortality at 1.56 ppm worked out at 97.2%, the mortality at 3.125 ppm turned out to be 100% and the mortality at 6.25 ppm came out at 100%. Also, the mortality at 12.5 ppm in the test with Tetranychus cinnabarinus came out at 100%. Moreover, the mortality at 1 ppm with Spodoptera frugiperda is more than 90%. Further, the mortality at 1 ppm in test [2] (setting [6]) is more than 90%.
In test [1] (in Brassica oleracea, 72 h), `CO/N=C/NC(=O)c1ccc(C2=NOC(c3cc(Cl)cc(Cl)c3)(C(F)(F)F)C2)cc1C` (centres unmarked) [Fluxametamide, 4-[5-(3,5-dichlorophenyl)-4,5-dihydro-5-(trifluoromethyl)-3-isoxazolyl]-N-[(methoxyamino)methylene]-2-methylbenzamide, reference compound] returned a mortality at 1.56 ppm of 0%, a mortality at 3.125 ppm of 0% and a mortality at 6.25 ppm of 0%. In test [3], the mortality at 0.2 ppm was 3.33%, the mortality at 1 ppm is 93.3% and the mortality at 5 ppm was found to be 100%. Also, in the test with Tetranychus cinnabarinus, the mortality at 1.56 ppm was determined as 0%, the mortality at 3.125 ppm came out at 25.6%, the mortality at 6.25 ppm amounted to 81.5% and the mortality at 12.5 ppm was 96.8%. In test [2] (in Brassica oleracea, 72 h), this compound gave a mortality at 0.333 ppm of 0% and a mortality at 1 ppm of 5%.
In test [3], `CNC(=O)c1cc(Cl)cc(C)c1NC(=O)c1cc(Br)nn1-c1ncccc1Cl` [Chlorantraniliprole, reference compound] registered a mortality at 0.2 ppm of 33.3%, a mortality at 1 ppm of 40% and a mortality at 5 ppm of 66.7%.
Take `Cc1cc(C2=NOC(c3cc(Cl)c(Cl)c(Cl)c3)(C(F)(F)F)C2)ccc1C(=O)NC1CCS(=O)(=O)C1` (centres unmarked) [Compound I-3, N-(1,1-dioxotetrahydrothiophen-3-yl)-2-methyl-4-(5-(3,4,5-trichlorophenyl)-5-(trifluoromethyl)-4,5-dihydroisoxazol-3-yl) benzamide]: the mortality at 3.25 ppm in test [1] (72 h) was more than 90%. Further, the mortality at 1.6 ppm in the test on Tetranychus cinnabarinus is more than 90%. The mortality at 1 ppm in test [2] (setting [6]) was more than 90%.
`Cc1cc(C2=NOC(c3cc(Cl)c(F)c(Cl)c3)(C(F)(F)F)C2)ccc1C(=O)NC1CCSC1` (centres unmarked) [Compound I-23]: the mortality at 3.25 ppm in test [1] (setting [4]) was more than 90%. The mortality at 1 ppm in test [2] (setting [5]) was more than 90%.
Turning to `Cc1cc(C2=NOC(c3cc(Cl)c(F)c(Cl)c3)(C(F)(F)F)C2)ccc1C(=O)NC1CS(=O)(=O)C1` (centres unmarked) [X.82, reference compound], the mortality at 1.56 ppm in test [1] (1.56 ppm, larvae, cabbage leaves soaked 15 s, 72 hours, read-out: Mortality (%)) turned out to be 0%. In addition, in test [1] (3.125 ppm, larvae, cabbage leaves soaked 15 s, 72 hours, read-out: Mortality (%)), the mortality at 3.125 ppm is 0%. Besides, the mortality at 6.25 ppm in test [1] (6.25 ppm, larvae, cabbage leaves soaked 15 s, 72 hours, read-out: Mortality (%)) was determined as 65%. The mortality at 0.333 ppm in test [2] (72 h, 0.333 ppm, 3rd instar larvae, sensitive strain, cabbage leaves soaked 10 s, three days, read-out: Mortality (%)) came to 0%. Besides, the mortality at 1 ppm in test [2] (72 h, 1 ppm, 3rd instar larvae, sensitive strain, cabbage leaves soaked 10 s, three days, read-out: Mortality (%)) amounted to 10%.
On to `Cc1cc(C2=NO[C@](c3cc(Cl)c(F)c(Cl)c3)(C(F)(F)F)C2)ccc1C(=O)N[C@H]1CCS(=O)(=O)C1` [Compound I-18], for which, in test [1] (setting [4]), the mortality at 3.25 ppm was more than 90%. Besides, in test [2] (setting [5]), the mortality at 1 ppm was more than 90%.
As for `Cc1cc(C2=NOC(c3cc(Cl)c(F)c(Cl)c3)(C(F)(F)F)C2)ccc1C(=O)N(C(=O)C(C)C)C1CCS(=O)(=O)C1` (centres unmarked) [Compound I-21, N-isopropionyl-4-(5-(3,5-dichloro-4-fluorophenyl)-5-(trifluoromethyl)-4,5-dihydroisoxazol-3-yl)-N-(1,1-dioxotetrahydrothiophen-3-yl)-2-methylbenzamide], the mortality at 3.25 ppm in test [1] (72 h) was more than 90%. Also, in test [2] (setting [6]), the mortality at 1 ppm is more than 90%.
On to `Cc1cc(C2=NOC(c3cc(Cl)c(F)c(Cl)c3)(C(F)(F)F)C2)ccc1C(=O)N(C(=O)C1CC1)C1CCS(=O)(=O)C1` (centres unmarked) [Compound I-22, N-cyclopropanoyl-4-(5-(3,5-dichloro-4-fluorophenyl)-5-(trifluoromethyl)-4,5-dihydroisoxazol-3-yl)-N-(1,1-dioxotetrahydrothiophen-3-yl)-2-methylbenzamide], for which the mortality at 3.25 ppm in test [1] (72 h) is more than 90%. Also, the mortality at 1 ppm in test [2] (setting [6]) is more than 90%.
For `Cc1cc(C2=NO[C@@](c3cc(Cl)c(F)c(Cl)c3)(C(F)(F)F)C2)ccc1C(=O)N[C@@H]1CCS(=O)(=O)C1` [Compound I-16], in test [1] (setting [4]), the mortality at 3.25 ppm is more than 90%. For the same compound, in test [2] (setting [5]), the mortality at 1 ppm was more than 90%.
Take `Cc1cc(C2=NO[C@@](c3cc(Cl)c(F)c(Cl)c3)(C(F)(F)F)C2)ccc1C(=O)NC1CCS(=O)(=O)C1` (stereo partly drawn) [Compound I-17, 4-((S)-5-(3,5-dichloro-4-fluorophenyl)-5-(trifluoromethyl)-4,5-dihydroisoxazol-3-yl)-N-(1,1-dioxotetrahydrothiophen-3-yl)-2-methylbenzamide]: the mortality at 3.25 ppm in test [1] (72 h) was more than 90%. Also, in the test on Phyllotreta striolata, the mortality at 50 ppm is more than 90%. Further, in the test with Tetranychus cinnabarinus, the mortality at 1.6 ppm is more than 90%, the mortality at 1.56 ppm was determined as 100%, the mortality at 3.125 ppm was determined as 100% and the mortality at 6.25 ppm came to 100%. Further, the mortality at 12.5 ppm in the test on Tetranychus cinnabarinus came to 100%. Also, the mortality at 1 ppm in test [2] (setting [6]) was more than 90%.
Consider `Cc1cc(C2=NOC(c3cc(Cl)c(F)c(Cl)c3)(C(F)(F)F)C2)ccc1C(=O)N[C@H]1CCS(=O)(=O)C1` (stereo partly drawn) [Compound I-13, 4-(5-(3,5-dichloro-4-fluorophenyl)-5-(trifluoromethyl)-4,5-dihydroisoxazol-3-yl)-N—((S)-1,1-dioxotetrahydrothiophen-3-yl)-2-methylbenzamide], for which, in test [1] (72 h), the mortality at 3.25 ppm was more than 90%. In addition, the mortality at 1 ppm in test [2] (setting [6]) is more than 90%.
